Source: patent publication US20100130436A1, “CO-ADMINISTRATION OF RANOLAZINE AND CARDIAC GLYCOSIDES” (priority 2008, published 2010)

Experiments:
[1] = system: late sodium current (late INa); assay: Whole-cell patch-clamp of late INa in isolated ventricular myocytes; format: cell-based, guinea pig; conditions: for effect of ouabain (1 μmol/L) to increase late INa: FIG. 10, intracellular KN-93 10 μmol/L, EGTA 1 mmol/L, KN-92 10 μmol/L; for increase of late INa at the end of a 10-min exposure to ouabain / late INa at the end of a 10-min exposure to ouabain: ouabain 1 μmol/L
[2] = system: cardiac tissues; conditions: Heers et al. 1991; Damiano et al. 1991; cited from earlier work
[3] = agent 10 μmol/L intracellular via patch pipette

SMILES | effect of ouabain (1 μmol/L) to increase late INa [1] | increase of late INa at the end of a 10-min exposure to ouabain [1, 3] [%] | late INa at the end of a 10-min exposure to ouabain [1, 3] [pC/pF] | sodium and calcium overload during exposure to cardiac glycosides [2] | late INa at the end of a 10-min exposure to ouabain ([1]; EGTA 1 mmol/L in patch pipette, from 23±3, n=6) [pC/pF] | increase of late INa at the end of a 10-min exposure to ouabain ([1]; EGTA 1 mmol/L in patch pipette, n=6) [%]
COc1ccc(S(=O)(=O)N(CCO)c2ccccc2CN(C)C/C=C/c2ccc(Cl)cc2)cc1 [KN-93] | attenuated | 76±35 | 33±6 |  |  | 
COc1ccc(S(=O)(=O)Nc2ccccc2CN(C)C/C=C/c2ccc(Cl)cc2)cc1 [KN-92] | not | 273±39 | 72±7 |  |  | 
CN(c1nc2ccccc2s1)C1CCN(CCCCOc2ccc(F)cc2)CC1 [R56865] |  |  |  | reduce sodium and calcium overload |  | 
O=C(O)CN(CCOCCOCCN(CC(=O)O)CC(=O)O)CC(=O)O [EGTA] | attenuated |  |  |  | 31±8 | 33±28
